# Measurements from patent US9701667B2, “Coumarin-based fluorogenic agents and uses thereof for specific protein labelling” (UNIVERSITY OF OTTAWA, priority 2014, dated 2017).
# “Also recorded” adds a separate entry of the source.
# Tests used:
# MBP-dC10α [1] = test: Fluorescence properties and fluorescence enhancement (FE) before/after labelling of model target protein; type: biochemical; conditions: for Fluorescence enhancement (FE): after labelling with MBP-dC10, λex = 440 nm, λem = 485 nm, 50 mM HEPES pH 7.4; for fluorescence after the labelling reaction: after reaction with MBP-dC10α; for background (intrinsic) fluorescence before labelling / quenching: fluorogen without target protein
# Experimental: For experiments described herein, maltose-binding protein (MBP) was chosen as a highly-soluble test protein and the dC10α tag was fused to its C-terminus (MBP-dC10α) as described previously (Guy, J. et al., Mol. Biosyst. 2010, 6, 976-987).
# Emission spectra and fluorescence intensity measurements were recorded at 37° C. with a Synergy H4 Hybrid Multi-Mode Microplate Reader with excitation and emission monochromators set at 9 nm bandpass. The mixture of 100 μM solution of fluorogen (YCx) and 100 μM MBP-dC10 in 50 mM HEPES buffer (pH 7.4) with 5% DMSO was incubated at 37° C. in the dark for 12 hours, after which the fluorescence emission spectrum of a dilution (25 μM final) in 50 mM HEPES buffer with 5% DMSO was recorded. The emission spectra of the corresponding labelling reagent in same solution without MBP-dC10α were also recorded. The ratio of fluorescence intensity at maximum emission gave the fluorescence enhancement (FE) ratio.
# [2] = Kinetic studies of consecutive thiol addition reactions with model thiol MPA; conditions: for first thiol addition faster than second addition: ratio of first to second MPA addition rate; for k1 / k2: second order rate constant, 50 mM HEPES pH 7.4, 5% DMSO, 37° C.; for k1: first thiol addition of MPA; for k2: second thiol addition of MPA
# Experimental: Kinetic studies were then performed for the thiol addition reactions of YC5 and YC9 with 3-mercaptopropionic acid (MPA) as a water-soluble, nucleophilic model thiol (Scheme 13). Reactions were run in the presence of a large excess of MPA, making them pseudo-first order in fluorogen. The resulting time-dependent increase in fluorescence was fit to a model for consecutive first order reactions, providing pseudo-first order rate constants for both addition steps. The concentration of MPA was then varied, allowing second order rate constants to be calculated for both steps.
# where I is fluorescence intensity, and the fluorescence intensity is linearly proportional to the concentration, since the concentration of fluorogen used here is within the linear range. So IA=a*[A]; IB=b*[B]; IP=p*[P]; [A]0=2.5*10^−5. With this formula, there will be 5 parameters, but based on the nature of the reaction and the fluorescent properties of the compounds, the 5 parameters can be restrained as: p>b>a>0; k1>k2>0. Finally, the formula and the conditions were applied in Origin 6.0 to fit the curves by non-linear regression, yielding values for the kobs for each step.
# Kinetic experiments were carried out at 37° C. using Synergy H4 Hybrid Multi-Mode Microplate Reader with excitation and emission monochromators 9 nm bandpass. Solutions with different MPA concentrations were prepared in 96-well plate and labelling reagent (YC5 or YC9) in DMSO was added immediately before recording. The final concentration of labelling reagent was 25 μM and the final concentrations of MPA were 0.875 mM, 1 mM, 1.125 mM or 1.25 mM in 50 mM HEPES buffer (pH 7.4) with 5% DMSO (FIG. 12). Samples were excited at 440 nm and fluorescence intensity was followed at 485 nm as a function of time. All the time-dependent fluorescence increase curves were fitted by non-linear regression according to the formula from the last section using Origin to get kobs. kobs was plotted against MPA concentrations to obtain a second order rate constant.
# MBP-dC10α [3] = test: Time-dependent fluorescence increase on reaction with test protein; type: biochemical; conditions: for selectivity of labelling target protein over GSH: MBP-dC10 versus GSH; for reactivity with test protein MBP-dC10: 25 μM fluorogen, 25 μM MBP-dC10, 50 mM HEPES pH 7.4
# Experimental: (§1) Reactivity was tested through the time-dependent fluorescence increase at 37° C. using Synergy H4 Hybrid Multi-Mode Microplate Reader with excitation and emission monochromators set to 9 nm bandpass. All reactions were prepared in 50 mM HEPES buffer (pH 7.4) with 5% DMSO. Solutions of MBP-dC10α or GSH were prepared in 96-well plates and labelling reagent (YCx) in DMSO was added immediately before recording. The final concentration of labelling reagent was 25 μM, the final concentration of MBP-dC10α was 25 μM and the final concentration of GSH was 50 μM or 1 mM in 50 mM HEPES buffer (pH 7.4) with 5% DMSO. Samples were excited at 440 nm and fluorescence intensity was followed at 485 nm as a function of time.
# [4] = Time-dependent fluorescence increase on reaction with GSH; conditions: for reaction with GSH: 50 mM HEPES pH 7.4; for reaction with low concentration of GSH / reaction with high concentration (large excess) of GSH: 25 μM fluorogen; for reaction with low concentration of GSH: 50 μM GSH; for reaction with high concentration (large excess) of GSH: 1 mM GSH
# Experimental: as §1
# cmyc-mNeptune-dC10α = test: Intracellular labelling of test protein in transfected cells (YC9); type: cell-based, human
# Text: The red fluorescent protein mNeptune was chosen as a target protein so that its intrinsic fluorescence would serve as a control for the transfection and expression of the target protein. The target sequence dC10α was cloned to its C-terminus and the cmyc epitope (which would ensure the protein was also at least partially directed to the nucleus) was cloned to its N-terminus. […] Furthermore, fluorescent labelling was most intense and nearly limited to cells (FIG. 11D) that expressed the target red fluorescent test protein (FIG. 11E).
# HEK 293T cells were plated into 6-well plates equipped with 25 mm×25 mm coverslips and grown in DMEM supplemented with 10% FBS 16 h before transfection. Cells were transiently transfected with mNeptune-dC10α or pcDNA3.1 using lipofectamine 2000. Either 24 or 48 h after transfection, the cells were washed with complete DMEM and incubated with 25 μM YC9 in DMEM for 30 min at 37° C. The media with labelling reagent was removed and followed by 3 times washing over 3 h at 37° C. Cells were fixed after labelling for imaging on a Carl Zeiss Axiophot inverted microscope.
# HEK293T cells = test: MTT cytotoxicity assay; type: cell-based, human; conditions: 20 h incubation
# Experimental: 3-(4,5-Dimethylthiazol-2-yl)-2,5-diphenyl tetrazolium bromide (MTT) is a yellow tetrazolium salt and can be reduced to formazan crystals, which are insoluble in aqueous solutions, by active mitochondria in living cells. The resulting intracellular purple formazan can be dissolved in Triton X100, and therefore quantified by measuring absorption of the solution.
# Cells were seeded in a 96-well plate and incubated with 100 μL of culture medium with different amounts of the fluorogen YCx for 16 h. No fluorogen was added to the positive control and no cells were plated in the negative control. Portions of 25 μL of MTT solution (5 mg in 1 mL of Hanks' balanced salt solution) were added to the wells and the cells were further incubated at 37° C. for 4 h. Solubilization solutions (100 μL) were then added and incubated in 96-well plates at room temperature in the dark overnight. The absorption of each well was measured using a plate reader at a wavelength of 570 nm with 690 nm as a reference. Cell viability was calculated according to the following equation: Cell viability=(Awith fluorogen−Anegative control)/(Apositive control−Anegative control).
# Aqueous solubility = type: physicochemical
SMILES,Fluorescence enhancement (FE) (MBP-dC10α [1]),background (intrinsic) fluorescence before labelling / quenching (MBP-dC10α [1]),reaction with low concentration of GSH [4],reaction with high concentration (large excess) of GSH [4],further results
"CCN(CC)c1ccc2cc(C(=O)Nc3cc(N4C(=O)C=C(C)C4=O)cc(N4C(=O)C=C(C)C4=O)c3)c(=O)oc2c1 [YC5, N-(3,5-bis(3-methyl-2,5-dioxo-2,5-dihydro-1H-pyrrol-1-yl)phenyl)-7-(diethylamino)-2-oxo-2H-chromene-3-carboxamide]",69,negligible background fluorescence,,,fluorescence after the labelling reaction (MBP-dC10α [1]): strong fluorescence; also recorded: strongly fluorescent; first thiol addition faster than second addition [2]: 7 times; k1 [2]: 1.208 ± 0.249 M⁻¹ s⁻¹; k2 [2]: 0.1571 ± 0.0510 M⁻¹ s⁻¹; selectivity of labelling target protein over GSH (MBP-dC10α [3]): reacted faster with MBP-dC10α than with GSH; reaction with GSH [4]: still appreciable
"CCN(CC)c1ccc2cc(C(=O)Nc3cc(N4C(=O)C=C(C)C4=O)cc(N4C(=O)C=C(OC)C4=O)c3)c(=O)oc2c1 [YC9, 7-(Diethylamino)-N-(3-(3-methoxy-2,5-dioxo-2,5-dihydro-1H-pyrrol-1-yl)-5-(3-methyl-2,5-dioxo-2,5-dihydro-1H-pyrrol-1-yl)phenyl)-2-oxo-2H-chromene-3-carboxamide]",62,negligible background fluorescence,did not react,showed some signal,"fluorescence after the labelling reaction (MBP-dC10α [1]): strongly fluorescent; first thiol addition faster than second addition [2]: 63 times; k1 [2]: 2.480 ± 0.216 M⁻¹ s⁻¹; k2 [2]: 0.0388 ± 0.0133 M⁻¹ s⁻¹; reactivity with test protein MBP-dC10 (MBP-dC10α [3]): still rapid; reaction with GSH [4]: completely suppressed; selectivity of labelling dC10α-tagged target protein in living cells (cmyc-mNeptune-dC10α; HEK293 cells transfected with cmyc-mNeptune-dC10α, 25 μM YC9, 30 min): high selectivity; background fluorescence in mock-transfected cells (cmyc-mNeptune-dC10α; cells transfected with empty (mock) vector, 25 μM YC9): minimal background fluorescence; melting point: 88.3 to 93.7 °C"
CCC1=CC(=O)N(c2cc(NC(=O)c3cc4ccc(N(CC)CC)cc4oc3=O)cc(N3C(=O)C=C(C)C3=O)c2)C1=O [YC15],226,,did not react,showed some signal,
CCN(CC)c1ccc2cc(C(=O)Nc3cc(N4C(=O)C=C(C)C4=O)cc(N4C(=O)C=C(C(C)C)C4=O)c3)c(=O)oc2c1 [YC16],228,,did not react,showed some signal,
CCOC1=CC(=O)N(c2cc(NC(=O)c3cc4ccc(N(CC)CC)cc4oc3=O)cc(N3C(=O)C=C(C)C3=O)c2)C1=O [YC17],194,,did not react,showed some signal,
CCN(CC)c1ccc2cc(C(=O)Nc3cc(N4C(=O)C=C(C)C4=O)cc(N4C(=O)C=C(Br)C4=O)c3)c(=O)oc2c1 [YC18],468,,,,reactivity with test protein MBP-dC10 (MBP-dC10α [3]): much more reactive than other fluorogens; also recorded: labelled the protein most efficiently; selectivity of labelling target protein over GSH (MBP-dC10α [3]): did not show much difference; also recorded: not as selectively as other fluorogens
CCN(CC)c1ccc2cc(C(=O)Nc3cc(N4C(=O)C=C(C)C4=O)cc(N4C(=O)C=C(OC(C)C)C4=O)c3)c(=O)oc2c1 [YC19],189,,did not react,showed some signal,
"COC(=O)CCN(CCC(=O)OC)c1ccc2cc(C(=O)Nc3cc(N4C(=O)C=C(OC)C4=O)cc(N4C(=O)C=C(OC)C4=O)c3)c(=O)oc2c1 [YC21M, Dimethyl 3,3′-((3-((3,5-bis(3-methoxy-2,5-dioxo-2,5-dihydro-1H-pyrrol-1-yl)phenyl)carbamoyl)-2-oxo-2H-chromen-7-yl)azanediyl)dipropanoate]",,,,,"cytotoxicity (cell viability, MTT) (HEK293T cells): neither showed any cytotoxicity up to 100 μM"
"COc1ccc2cc(C(=O)N3CCN(C(=O)c4cc(N5C(=O)C=C(C)C5=O)cc(N5C(=O)C=C(C)C5=O)c4)CC3)c(=O)oc2c1 [YC24, 1,1′-(5-(4-(7-methoxy-2-oxo-2H-chromene-3-carbonyl)piperazine-1-carbonyl)-1,3-phenylene)bis(3-methyl-1H-pyrrole-2,5-dione)]",,quenched very efficiently,,,fluorescence after the labelling reaction (MBP-dC10α [1]): weak
"CCN(CC)c1ccc2cc(C(=O)N3CCN(C(=O)c4cc(N5C(=O)C=C(C)C5=O)cc(N5C(=O)C=C(C)C5=O)c4)CC3)c(=O)oc2c1 [YC25, 1,1′-(5-(4-(7-(diethylamino)-2-oxo-2H-chromene-3-carbonyl)piperazine-1-carbonyl)-1,3-phenylene)bis(3-methyl-1H-pyrrole-2,5-dione)]",,strong background fluorescence,,,
"COc1ccc2cc(C(=O)Nc3cc(N4C(=O)C=C(C)C4=O)cc(N4C(=O)C=C(C)C4=O)c3)c(=O)oc2c1 [YC26, N-(3,5-bis(3-methyl-2,5-dioxo-2,5-dihydro-1H-pyrrol-1-yl)phenyl)-7-methoxy-2-oxo-2H-chromene-3-carboxamide]",,,,,aqueous solubility (Aqueous solubility): poor aqueous solubility
